Data: patent US6124115A, “Production and use of isolated type 5 17β-hydroxysteroid dehydrogenase” (Endorecherche Inc., priority 1995, dated 2000)

Molecular target: T1, human type 5 17β-HSD (Homo sapiens, UniProt P42330)
T1 construct: encodes a protein having 323 amino acids with a calculated molecular weight of 36,844 daltons; expressed in transfected cells; host or cells: human embryonal kidney 293 cells (ATCC CRL 1573), transient transfection with pCMV vector
T1 sequence (P42330 1-323 H5Q): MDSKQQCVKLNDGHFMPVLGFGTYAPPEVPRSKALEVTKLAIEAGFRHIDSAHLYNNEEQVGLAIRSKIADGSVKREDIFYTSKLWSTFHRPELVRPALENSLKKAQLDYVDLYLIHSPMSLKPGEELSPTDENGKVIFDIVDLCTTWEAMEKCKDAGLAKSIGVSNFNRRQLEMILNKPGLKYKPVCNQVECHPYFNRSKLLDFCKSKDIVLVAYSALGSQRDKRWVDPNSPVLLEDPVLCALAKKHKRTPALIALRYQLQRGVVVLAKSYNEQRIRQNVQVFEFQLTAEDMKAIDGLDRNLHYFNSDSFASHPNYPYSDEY
Experiment: Assay of enzymatic activity (substrate specificity) in 293 cells transfected with human type 5 17β-HSD
Assay type: cell-based
Details: 0.1 μM 14C-labeled substrate, 1 hour incubation, transfected embryonal kidney (293) cells, FIG. 1A
Procedure: The concentration of each substrate was 0.1 μM. […] The substrates, progesterone (P) and Δ^4 -dione, were added at a concentration of 0.1 μM;
The vectors were transfected using the calcium phosphate procedure described by Kingston, R. E., In: Current Protocols in Molecular Biology, Ausubel et al. eds., pp. 9.1.1-9.1.9, John Wiley & Sons, N.Y. (1987) and used 1 to 10 μg of recombinant plasmid DNA per 10^6 cells. The total amount of DNA is kept at 10 μg of plasmid DNA per 10^6 cells by completing with pCMV plasmid without insert. The cells were initially plated at 10^4 cells/cm^2 in Falcon® culture flasks and grown in Dulbecco's modified Eagle's medium containing 10% (vol/vol) fetal bovine serum (hyclone, Logan, Utah) under a humidified atmosphere of air/CO^2 (95%/5%) at 37° C. and supplemented with 2 mM L-glutamine, 1 mM sodium pyruvate, 100 IU penicillin/ml, and 100 μbg streptomycin sulfate/ml.
See also Lachance et al., J. Biol. Chem., 265:20469-20475 (1990). […] After incubation for 1 hour, the steroids were extracted twice with 2 ml of ether. The organic phase was pooled and evaporated to dryness. The steroids were solubilized in 50 μl of dichloromethane, applied to a Silica gel 60 thin layer chromatography (TLC) plate (Merck, Darmstad, Germany) and then separated by migration in the toluene-acetone (4:1) solvent system (Luu-The, V. et al., J. Invest. Dennatol., 102:221-226 (1994) which is herein incorporated by reference).
As described above, the enzymatic activity of the type 5 17β-HSD was evaluated by transfecting 293 cells with vectors which included the gene encoding human type 5 17β-HSD.

With `C[C@]12CCC(=O)C[C@@H]1CC[C@@H]1[C@@H]2CC[C@]2(C)[C@@H](O)CC[C@@H]12` [DHT, dihydrotestosterone] the “3α-HSD activity (transformation of DHT to 5α-androstane-3α,17β-diol)” value was “negligible”.
With `C[C@]12CC[C@@H]3c4ccc(O)cc4CC[C@H]3[C@@H]1CC[C@@H]2O` [E2, estradiol] the “ability of the enzyme to transform E1 and E2” value was “negligible”.
With `CC(=O)[C@H]1CC[C@H]2[C@@H]3CCC4=CC(=O)CC[C@]4(C)[C@H]3CC[C@]12C` [progesterone] the “reductive 20α-HSD activity (progesterone transformed to 20α-OH-P)” value was “high”.
For `C[C@]12CCC(=O)C=C1CC[C@@H]1[C@@H]2CC[C@]2(C)C(=O)CC[C@@H]12` [Δ^4dione, 4-androstene-3,17-dione], the “17β-HSD activity (Δ4-dione converted to testosterone)” value was “high”.
